Here are results for 16 molecules from patent publication US10508103B2, “Benzimidazole-linked indole compound acting as novel divalent IAP antagonist” (MEDSHINE DISCOVERY INC., priority 2016, dated 2019).

In assay [1] the target is cIAP2-BIR3 Protein (Homo sapiens (Human), UniProt Q13489). The assay can be described thus: Fluorescence polarization affinity of compounds to cIAP2-BIR3. Conditions: cIAP2-BIR3 60 nM; 5 nM ARPFAQ-K(5-FAM)-NH2 probe; FP; pH 7.5; read-out: affinity to target protein in vitro, cIAP2-BIR3 Protein (IC50). Format: binding. On the procedure: (§1) Biological Assay 1: affinity of compounds to cIAP1-BIR3, cIAP2-BIR3, XIAP-BIR3 • 1) Affinity of compounds listed in table to cIAP1-BIR3, Ciap2-BIR3, XIAP-BIR3 was tested referring to Nikolovska-Colesks, Z. et.Al. (Analytical Biochemistry,2004,232:261-273) to obtain IC50 value. Generally speaking, in 10-dose IC50 mode, IAP antagonists with different concentrations were diluted in series by 3-fold and fluorescence labelled ARPFAQ-K (5-FAM)-NH2 peptide was used as probe to test compounds binding to protein BIR3 domain. • 2) Test condition: cIAP1-BIR3: 20 nM; cIAP2-BIR3: 60 nM; XIAP-BIR3: 30 nM; 5 nM probe in 100 mM tripotassium phosphate, pH 7.5, 0.1 mg/mL BSA, 0.005% Triton X100 and 0.5% DMSO. • 3) Test procedure: compounds were added into protein with different concentrations by using ECHO (LabCyte), and then the mixture was preincubated for 15 min. The probe was added and the final concentration was 5 nM. After incubating for 60 min, FP was tested and mP was calculated. Experiment results were list in table 1.
(Polarisation of emitted light reports the rotation of a fluorescent probe.)

The target of assay [2] is cIAP1-BIR3 Protein (Homo sapiens (Human), UniProt Q13490). The assay can be described thus: Fluorescence polarization affinity of compounds to cIAP1-BIR3. Format: binding. As to conditions: cIAP1-BIR3 20 nM; 5 nM ARPFAQ-K(5-FAM)-NH2 probe; FP; pH 7.5; read-out: affinity to target protein in vitro, cIAP1-BIR3 Protein (IC50). How it is done:
as §1

Assay [3] has as its system NF-κB Luciferase Reporter Hela cells. The assay is described as follows: TNF-α inducing NF-κB reporter. Format: cell-based. On the procedure:
Biological Assay 2: TNF-α inducing NF-κB reporter
• 1) tested compounds were added into DMSO to give parent liquor (10 mM); • 2) reference compound Birinapant (32 μL, 10 mM) was added into DMSO (128 μL) to give a solution (2 mM); • 3) 0.5 μL reference compound Birinapant (2 mM) and tested compounds (10 mM) were taken by Echo and added into Greiner 96 well black cell culture plate respectively. The initial concentration of the reference compound and tested compound was 10 μM and 50 μM, respectively. Then, the reference compound and tested compounds were diluted at 9 points in series by 5-fold; and every plate was repeated for 3 times. • 4) the reference compound WXFL2012A001 (Birinapant) (final concentration: 10 μM) as HPE and DMSO (final concentration: 0.5%) as ZPE.
• 5) purpose of the three repeated plates: the first plate was used for testing compounds' activity;
the second plate was used for testing cytotoxicity of the compounds; the third plate was used for solution replacement of the first and second plates: mixing inducer TNF-α and medium containing 0.1% FBS, and then being added to the third plate and the resultant mixture was transferred to the first plate where supernatants had been removed.
• 1) removing medium in NF-iBLuciferase Reporter Hela cell culture flask and washing cell once with PBS (10 mL) • 2) adding 0.25% pancreatin (3 mL) to T150 cell culture flask, and placinginto cell incubator (37° C., 5%CO2) and dissociating cell for 3 min, and then medium (10 mL) was added to end dissociation and blowing cells with electric pipette until cells were dispersed into single cell. • 3) Calculating cell density with cell counter Countstar • 4) Adjusting NF-κB Luciferase Reporter Hela density with medium to 2.0×10^5 cells/mL • 5) Adding cells to two Greiner 96 well black cell culture plates containing compounds, (100 μL per well (2.0×10^4 cells/well)), one plate was used for testing compounds' activity, another was used for testing cytotoxicity of the compounds. • 6) Placing cell culture plates into cell incubator (37° C., 5%CO2) and incubatingfor 24 h Second Day TNF-α Inducing • 1) TNF-α (100 μg/mL) was diluted into 20 ng/mL with 0.1% FBS medium and transferredto the third plate with 100 μL per well • 2) Removing medium of the first 96 well black cell culture plate (compound activity testing plate) after 24 h, replacing with fresh medium containing the compound and 20 ng/mL TNF-α in the third plate • 3) Placing cell culture plate into cell incubator (37° C., 5% CO2) and incubatingfor 6 h • 4) after 6 h, compound's activity in the first plate was tested according to Bright-Glo (Promega) manual method, luciferase signal in each well was tested by Envision plate reader • 5) compound's cytotoxicity in the second plate was tested according to ATPlite 1Step (Perkin Elmer) manual method, luciferase signal in each well was tested by Envision plate reader • 6) analyzing with software to obtain EC50 of compound.

Assay [4] has as its target XIAP-BIR3 Protein (Homo sapiens (Human), UniProt P98170). The assay is described as follows: Fluorescence polarization affinity of compounds to XIAP-BIR3. As to conditions: XIAP-BIR3 30 nM; 5 nM ARPFAQ-K(5-FAM)-NH2 probe; FP; pH 7.5; read-out: affinity to target protein in vitro, XIAP-BIR3 Protein (IC50). The assay is classed as binding. On the procedure: as §1
Where [5] appears, read: Homo sapiens, 6 h, Table 3, 20 ng/mL TNF-α, Bright-Glo luciferase, values given as ranges.
[6] abbreviates: Homo sapiens, 6 h, Table 4, 20 ng/mL TNF-α, Bright-Glo luciferase, exact values with control Birinapant.

Where only a bound is given, the exact number is not on record here.

cIAP2-BIR3 Protein, sequence (Q13489 238-349): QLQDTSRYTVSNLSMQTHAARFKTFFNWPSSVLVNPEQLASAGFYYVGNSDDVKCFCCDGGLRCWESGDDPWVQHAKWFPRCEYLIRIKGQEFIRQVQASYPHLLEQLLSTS
cIAP1-BIR3 Protein, sequence (Q13490 253-363): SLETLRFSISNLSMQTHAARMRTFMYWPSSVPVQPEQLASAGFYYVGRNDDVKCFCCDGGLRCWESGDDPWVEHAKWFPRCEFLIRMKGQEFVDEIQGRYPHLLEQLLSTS
XIAP-BIR3 Protein, sequence (P98170 241-356): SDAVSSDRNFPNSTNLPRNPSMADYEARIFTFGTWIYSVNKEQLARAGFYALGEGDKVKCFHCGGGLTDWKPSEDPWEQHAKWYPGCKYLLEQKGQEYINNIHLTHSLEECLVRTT

In general, IC50 refers to the point on the concentration scale where inhibition reaches its midpoint. By EC50 is commonly meant the concentration at which the effect is half-maximal. Low readings indicate greater potency, high ones weaker potency. For `CC[C@H](NC(=O)[C@H](C)NC)C(=O)N1CCC[C@H]1Cc1c(-c2nc3cc(F)ccc3n2C[C@@H]2CCCN2C(=O)[C@@H](NC(=O)[C@H](C)NC)C(C)C)[nH]c2cc(F)ccc12` [Embodiment 2], the IC50 in assay [1] was 0.01 to 0.1 µM; in assay [2] it was less than 0.01 µM; in assay [4], 0.01 to 0.1 µM. This molecule also displayed an EC50 in assay [3] (setting [5]) of 0.01 to 0.1 µM.

Consider `CC[C@H](NC(=O)[C@H](C)NC)C(=O)N1C[C@@H](F)C[C@H]1Cc1c(-c2nc3cc(F)ccc3n2C[C@@H]2C[C@H](F)CN2C(=O)[C@H](CC)NC(=O)[C@H](C)NC)[nH]c2cc(F)ccc12` [Embodiment 13], for which the IC50 in assay [1], in assay [2] and in assay [4] was 0.01 to 0.1 µM in each case. The molecule further came in with an EC50 in assay [3] (setting [5]) greater than 0.1 µM.

In the case of `CN[C@@H](C)C(=O)N[C@H](C(=O)N1C[C@@H](F)C[C@H]1Cc1c(-c2nc3cc(F)ccc3n2C[C@@H]2C[C@H](F)CN2C(=O)[C@@H](NC(=O)[C@H](C)NC)C2CC2)[nH]c2cc(F)ccc12)C1CC1` [Embodiment 14], the figures for the IC50 in assay [1], in assay [2] and in assay [4] were 0.01 to 0.1 µM, less than 0.01 µM and 0.01 to 0.1 µM, respectively. The same molecule registered an EC50 in assay [3] (setting [5]) of 0.01 to 0.1 µM.

On to `CN[C@@H](C)C(=O)N[C@H](C(=O)N1C[C@@H](F)C[C@H]1Cc1c(-c2nc3cc(F)ccc3n2C[C@@H]2C[C@H](F)CN2C(=O)[C@@H](NC(=O)[C@H](C)NC)C(C)C)[nH]c2cc(F)ccc12)C(C)C` [Embodiment 16], for which the IC50 was 0.01 to 0.1 µM in assay [1], less than 0.01 µM in assay [2] and 0.01 to 0.1 µM in assay [4]. For the same molecule, the values for the EC50 in assay [3] (setting [5]) and in assay [3] (setting [6]) were less than 0.01 µM and 0.00066 µM, respectively.

With `CN[C@@H](C)C(=O)N[C@H](C(=O)N1C[C@@H](F)C[C@H]1Cc1c(-c2nc3cc(F)ccc3n2C[C@@H]2C[C@H](F)CN2C(=O)[C@@H](NC(=O)[C@H](C)NC)C2CCC2)[nH]c2cc(F)ccc12)C1CCC1` [Embodiment 17], the figures for the IC50 in assay [1], in assay [2] and in assay [4] were 0.01 to 0.1 µM, less than 0.01 µM and less than 0.01 µM, respectively. Further, the EC50 in assay [3] (setting [5]) is less than 0.01 µM.

For `CC[C@H](NC(=O)[C@H](C)NC)C(=O)N1C[C@@H](F)C[C@H]1Cc1c(-c2nc3cc(F)ccc3n2C[C@@H]2C[C@H](F)CN2C(=O)[C@@H](NC(=O)[C@H](C)NC)C(C)C)[nH]c2cc(F)ccc12` [Embodiment 18], the IC50 in assay [1] is 0.01 to 0.1 µM; in assay [2] it was less than 0.01 µM; in assay [4] it was 0.01 to 0.1 µM. Also, the EC50 in assay [3] (setting [5]) was less than 0.01 µM; in assay [3] (setting [6]), 0.00605 µM.

For `CC[C@H](NC(=O)[C@H](C)NC)C(=O)N1C[C@@H](F)C[C@H]1Cc1c(-c2nc3cc(F)ccc3n2C[C@@H]2C[C@H](F)CN2C(=O)[C@@H](NC(=O)[C@H](C)NC)C(C)(C)C)[nH]c2cc(F)ccc12` [Embodiment 19], the IC50 in assay [1] was 0.01 to 0.1 µM; in assay [2] it was less than 0.01 µM; in assay [4], 0.01 to 0.1 µM. This molecule also had an EC50 in assay [3] (setting [5]) of less than 0.01 µM.

For `CC[C@H](NC(=O)[C@H](C)NC)C(=O)N1C[C@@H](F)C[C@H]1Cc1c(-c2nc3cc(F)ccc3n2C[C@@H]2C[C@H](F)CN2C(=O)[C@@H](NC(=O)[C@H](C)NC)C2CCCCC2)[nH]c2cc(F)ccc12` [Embodiment 20], the figures for the IC50 in assay [1], in assay [2] and in assay [4] were 0.01 to 0.1 µM, less than 0.01 µM and 0.01 to 0.1 µM, respectively. Moreover, the EC50 in assay [3] (setting [5]) is less than 0.01 µM.

Regarding `CN[C@@H](C)C(=O)N[C@H](C(=O)N1C[C@@H](F)C[C@H]1Cc1c(-c2nc3cc(F)ccc3n2C[C@@H]2C[C@H](F)CN2C(=O)[C@@H](NC(=O)[C@H](C)NC)C2CC2)[nH]c2cc(F)ccc12)C(C)C` [Embodiment 21], the IC50 in assay [1] is 0.01 to 0.1 µM; in assay [2], less than 0.01 µM; in assay [4], 0.01 to 0.1 µM. Moreover, the EC50 in assay [3] (setting [5]) lay in the range of 0.01 to 0.1 µM.

In the case of `CN[C@@H](C)C(=O)N[C@H](C(=O)N1C[C@@H](F)C[C@H]1Cn1c(-c2[nH]c3cc(F)ccc3c2C[C@@H]2C[C@H](F)CN2C(=O)[C@@H](NC(=O)[C@H](C)NC)C(C)(C)C)nc2cc(F)ccc21)C1CC1` [Embodiment 22], the IC50 in assay [1] is 0.01 to 0.1 µM; in assay [2], less than 0.01 µM; in assay [4], 0.01 to 0.1 µM. This molecule returned an EC50 in assay [3] (setting [5]) of less than 0.01 µM.

Regarding `CN[C@@H](C)C(=O)N[C@H](C(=O)N1C[C@@H](F)C[C@H]1Cc1c(-c2nc3cc(F)ccc3n2C[C@@H]2C[C@H](F)CN2C(=O)[C@@H](NC(=O)[C@H](C)NC)C2CC2)[nH]c2cc(F)ccc12)C1CCCCC1` [Embodiment 23], the IC50 in assay [1] was less than 0.01 µM; in assay [2], less than 0.01 µM; in assay [4] it was 0.01 to 0.1 µM. Further, the EC50 in assay [3] (setting [5]) was less than 0.01 µM.

As to `CC[C@H](NC(=O)[C@H](C)NC)C(=O)N1C[C@@H](F)C[C@H]1Cn1c(-c2[nH]c3cc(F)ccc3c2C[C@@H]2C[C@H](F)CN2C(=O)[C@@H](NC(=O)[C@H](C)NC)C(C)C)nc2cc(F)ccc21` [Embodiment 24], the IC50 in assay [1] is 0.01 to 0.1 µM; in assay [2] it was less than 0.01 µM; in assay [4], 0.01 to 0.1 µM. In assay [3] (setting [5]), this molecule returned an EC50 of 0.01 to 0.1 µM.

With `CC[C@H](NC(=O)[C@H](C)NC)C(=O)N1C[C@@H](F)C[C@H]1Cn1c(-c2[nH]c3cc(F)ccc3c2C[C@@H]2C[C@H](F)CN2C(=O)[C@@H](NC(=O)[C@H](C)NC)C2CC2)nc2cc(F)ccc21` [Embodiment 25], the IC50 in assay [1] was 0.01 to 0.1 µM; in assay [2], less than 0.01 µM; in assay [4], 0.01 to 0.1 µM. The same molecule gave a concentration giving a half-maximal response (EC50) in assay [3] (setting [5]) of 0.01 to 0.1 µM.

Consider `CC[C@H](NC(=O)[C@H](C)NC)C(=O)N1C[C@@H](F)C[C@H]1Cn1c(-c2[nH]c3cc(F)ccc3c2C[C@@H]2C[C@H](F)CN2C(=O)[C@@H](NC(=O)[C@H](C)NC)C(C)(C)C)nc2cc(F)ccc21` [Embodiment 26], for which the IC50 in assay [1], in assay [2] and in assay [4] was less than 0.01 µM each time. This molecule gave an EC50 in assay [3] (Homo sapiens, Table 3, 20 ng/mL TNF-α, 6 h, Bright-Glo luciferase, values given as ranges) of less than 0.01 µM.

For the molecule `CC[C@H](NC(=O)[C@H](C)NC)C(=O)N1C[C@@H](F)C[C@H]1Cn1c(-c2[nH]c3cc(F)ccc3c2C[C@@H]2C[C@H](F)CN2C(=O)[C@@H](NC(=O)[C@H](C)NC)C2CCCCC2)nc2cc(F)ccc21` [Embodiment 27], the half-maximal inhibitory concentration (IC50) in assay [1], in assay [2] and in assay [4] was less than 0.01 µM throughout. In assay [3] (setting [5]), the EC50 was less than 0.01 µM.

With `CN[C@@H](C)C(=O)N[C@H](C(=O)N1C[C@@H](F)C[C@H]1Cn1c(-c2[nH]c3cc(F)ccc3c2C[C@@H]2C[C@H](F)CN2C(=O)[C@@H](NC(=O)[C@H](C)NC)C2CC2)nc2cc(F)ccc21)C(C)C` [Embodiment 28], the IC50 in assay [1] was 0.01 to 0.1 µM; in assay [2], less than 0.01 µM; in assay [4] it was less than 0.01 µM. The EC50 in assay [3] (setting [5]) is less than 0.01 µM.
